Earlier results, collected in patent US5817883A, “Processes for producing hydroxyaldehydes” (Union Carbide Chemicals & Plastics Technology Corporation, priority 1997, dated 1998).

conditions: Table I, organophosphorus ligand basicity

SMILES | pKb
CCP(CC)C(C)(C)C [Diethyl-tert-butylphosphine] | 10.1
CCP(CC)c1ccccc1 [Diethylphenylphosphine] | 6.4
c1ccc(P(c2ccccc2)C2CCCCC2)cc1 [Diphenylcyclohexylphosphine] | 5
CCP(c1ccccc1)c1ccccc1 [Diphenylethylphosphine] | 4.9
CP(c1ccccc1)c1ccccc1 [Diphenylmethylphosphine] | 4.5
CN(C)c1ccc(P(c2ccc(N(C)C)cc2)c2ccc(N(C)C)cc2)cc1 [Tri(p-N,N-dimethylaminophenyl)phosphine] | 8.65
COc1ccc(P(c2ccc(OC)cc2)c2ccc(OC)cc2)cc1 [Tri(p-methoxyphenyl)phosphine] | 4.6
CCCCP(CCCC)CCCC [Tri-n-butylphosphine] | 8.4
CCCCCCCCP(CCCCCCCC)CCCCCCCC [Tri-n-octylphosphine] | 8.4
CCCP(CCC)CCC [Tri-n-propylphosphine] | 8.7
C1CCC(P(C2CCCCC2)C2CCCCC2)CC1 [Tricyclohexylphosphine] | 10
CCP(CC)CC [Triethylphosphine] | 8.7
CP(C)C [Trimethylphosphine] | 8.7
c1ccc(P(c2ccccc2)c2ccccc2)cc1 [Triphenylphosphine, reference compound] | 2.74

same assay, conditions: basicity of reference phosphine

SMILES | pKb
c1ccc(P(c2ccccc2)c2ccccc2)cc1 [Triphenylphosphine, reference compound] | 2.74
